Experimental data published in patent US20120190017A1, “POLYMORPHISMS IN THE HUMAN GENE FOR THE MULTIDRUG RESISTANCE-ASSOCIATED PROTEIN 1 (MRP-1) AND THEIR USE IN DIAGNOSTIC AND THERAPEUTIC APPLICATIONS” (priority 2001, published 2012).

System: MRP-1 mRNA
Test: MRP-1 mRNA content in duodenal biopsies from healthy volunteers before and after application of rifampicin
Type: in vivo, human
Details: before (A) vs after (B) application of rifampicin, paired T-test p<0.001
Description: FIG. 3: Diagram 1A and 1B represent the correlation of the genotype (wt/wt: 1; wt/mut and mut/mut:2) with MRP-1 mRNA content in duodenal biopsies from healthy volunteers derived from two independent experiments, before (A) and after (B) application of rifampicin. The p-value of the statistical evaluation (Kruskal-Wallis-Test), which result in a genotyp/phenotype correlation is p=0.086. […] Thus, the differences in the MRP-1 mRNA content are based on interindividual differences. The statistical analyses were performed using the computer program SPSS 10.0 (SPSS, Chicago, USA).
Functional polymorphisms in the MRP-1 gene (see tables in examples 2 and 4) affect the transport activity and subsequently the levels of drugs which are substrates of MRP-1. […] Three different patient collectives, two show side effects during drug therapy and one for which the MRP-1 mRNA levels had been defined, were analyzed to determine whether MRP-1 polymorphisms correlate with transporter activity and subsequently with alterations in drug activities and side effects. […] For this purpose, the 3 collectives (collective 1: samples with nephrotoxicities after cisplatin therapy; collective 2: liver and kidney side effects; collective 3: samples with defined high or low MRP-1 mRNA levels) were screened for all MRP-1 gene fragments, in which the new SNP's could be detected. […]

With `CO[C@H]1/C=C/O[C@@]2(C)Oc3c(C)c(O)c4c(O)c(c(/C=N/N5CCN(C)CC5)c(O)c4c3C2=O)NC(=O)/C(C)=C\C=C\[C@H](C)[C@H](O)[C@@H](C)[C@@H](O)[C@@H](C)[C@H](OC(C)=O)[C@@H]1C` [rifampicin] as the compound, how does the “effect on MRP-1 mRNA expression” value read?
The value was “no effect”.
